Where two headings read alike, the source gives them in different places.
Legend:
[1] = system: T125A mutant virus (HIV-1 NL-432 recombinant molecular clone, IN gene); test: HIV replication inhibition assay against integrase 124/125 mutant virus (Test Example 2); format: cell-based
In short: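 EC50 is the compound concentration blocking half of virus-induced cell death, measured by MTT (OD 560 nm, 690 nm reference) after 4 days at 37 °C. Integrase 124/125 mutant NL-432 virus from transfected 293T cells (60 pfu) was added to 2.5×10^4 MT-4 cells with compound.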

[2] = system: HIV; format: cell-based; conditions: EC50 in the presence of human serum (25%) versus without human serum, MT-4 cells
Protocol: To confirm the influence of human serum on anti-HIV activity as necessary, human serum was added and determined EC50 in this condition. Human serum (100 μL/well) was dispensed into each anti-HIV active substance at a designated concentration dispensed 50 μL each in advance into a 96-well microtiter plate, and the plate was incubate at room temperature for 1 hour. To the serum-free plate, only culture medium (100 μL/well) was dispensed into 96-well microtiter plate. MT-4 cells (3×10^4 cells/well) was infected with 3 μL/well of HIV solution diluted to an appropriate concentration (600 pfu/50 μL) by the required number of wells and incubated at 37° C. for 1 hour. The infected cells were centrifuged at 1200 rpm for 5 minutes, the supernatant was discarded, and the infected cells were dispersed into culture medium for the required number of wells at 50 μL/well. Infected cell suspension was dispensed into a 96-well microtiter plate of which anti-HIV active substance and human serum prepared in advance. The cell mixture was mixed with a plate mixer and cultured in a CO2 incubator for 4 days. The EC50 in the presence of human serum was calculated in the same manner as in Test Example 1 and the ratio of EC50 in the presence of human serum and EC50 in the absence of human serum was calculated as the potency shift value. […]

[3] = Human immunodeficiency virus 1, MT4, read-out: EC50 against T125A mutant virus, T125A mutant virus (HIV-1 NL-432 IN gene), MT-4 cells, MTT
[4] = read-out: EC50 against T125A mutant virus, T125A mutant virus (HIV-1 NL-432 IN gene), MT-4 cells, MTT

SMILES	EC50 [1, 3]	Potency shift value [2]	EC50 [1, 4]
Cc1c([C@H](OC(C)(C)C)C(=O)O)c(-c2ccc(Cl)cc2)c2cc(C)n3c2c1N(c1ncc(OCC2(F)COC2)cn1)CC3 [Compound I-259]	4.4 nM	15	–
Cc1ccc(-c2c([C@H](OC(C)(C)C)C(=O)O)c(C)c3c4c2cc(C)n4CCN3c2cnc(C)cn2)cc1 [Compound I-264]	4.4 nM	26	–
Cc1ccc(-c2c([C@H](OC(C)(C)C)C(=O)O)c(C)c3c4c2cc(C)n4CCN3c2cccc(C(=O)N(C)C)n2)cc1 [Compound I-269]	29 nM	7.4	–
COc1cncc(N2CCn3c(C)cc4c(-c5ccc(C)cc5)c([C@H](OC(C)(C)C)C(=O)O)c(C)c2c43)n1 [Compound I-274]	14 nM	16	–
COc1cnc(N2CCn3c(C)cc4c(-c5ccc(C)cc5)c([C@H](OC(C)(C)C)C(=O)O)c(C)c2c43)cn1 [Compound I-275]	13 nM	18	–
Cc1ccc(-c2c([C@H](OC(C)(C)C)C(=O)O)c(C)c3c4c2cc(C)n4CCN3c2ncc(OC3COC3)cn2)cc1 [Compound I-280]	5.3 nM	21	–
Cc1ccc(-c2c([C@H](OC(C)(C)C)C(=O)O)c(C)c3c4c2cc(C)n4CCN3CC(F)F)cc1 [Compound I-281]	17 nM	23	–
Cc1ccc(-c2c([C@H](OC(C)(C)C)C(=O)O)c(C)c3c4c2cc(C)n4CCN3c2ncc(OCCO)cn2)cc1 [Compound I-283]	12 nM	9.5	–
Cc1ccc(-c2c([C@H](OC(C)(C)C)C(=O)O)c(C)c3c4c2cc(C)n4CCN3c2ncc(OCCCO)cn2)cc1 [Compound I-284]	3.6 nM	17	–
Cc1ccc(-c2c([C@H](OC(C)(C)C)C(=O)O)c(C)c3c4c2cc(C)n4CCN3c2cccc(F)n2)cc1 [Compound I-286]	15 nM	14	–
Cc1ccc(-c2c([C@H](OC(C)(C)C)C(=O)O)c(C)c3c4c2cc(C)n4CCN3c2ccc(N3CCCC3=O)cn2)cc1 [Compound I-288]	5.3 nM	11	–
Cc1ccc(-c2c([C@H](OC(C)(C)C)C(=O)O)c(C)c3c4c2cc(C)n4CCN3c2ccc3ncccc3n2)cc1 [Compound I-289]	35 nM	15	–
CC(=O)NCCOc1cnc(N2CCn3c(C)cc4c(-c5ccc(C)cc5)c([C@H](OC(C)(C)C)C(=O)O)c(C)c2c43)nc1 [Compound I-295]	62 nM	5.3	–
C=Cc1cnc(N2CCn3c(C)cc4c(-c5ccc(Cl)cc5)c([C@H](OC(C)(C)C)C(=O)O)c(C)c2c43)nc1 [Compound I-299]	5.1 nM	20	–
Cc1c(-c2c([C@H](OC(C)(C)C)C(=O)O)c(C)c3c4c2cc(C)n4CCN3CCN(C)C)cc(F)c2c1CCCO2 [Compound I-310]	68 nM	1.2	–
Cc1c([C@H](OC(C)(C)C)C(=O)O)c(-c2ccc(Cl)cc2)c2cc(C)n3c2c1N(c1ncc(C2CCOCC2)cn1)CC3 [Compound I-311]	3.1 nM	15	–
COCc1cnc(N2CCn3c(C)cc4c(-c5ccc(Cl)cc5)c([C@H](OC(C)(C)C)C(=O)O)c(C)c2c43)nc1 [Compound I-312]	4.6 nM	37	–
Cc1c([C@H](OC(C)(C)C)C(=O)O)c(-c2ccc(Cl)cc2)c2cc(C)n3c2c1N(c1ncc(CN(C)C)cn1)CC3 [Compound I-313]	8.8 nM	7.7	–
CCOCc1cnc(N2CCn3c(C)cc4c(-c5ccc(Cl)cc5)c([C@H](OC(C)(C)C)C(=O)O)c(C)c2c43)nc1 [Compound I-314]	5.3 nM	41	–
Cc1c([C@H](OC(C)(C)C)C(=O)O)c(-c2ccc(Cl)cc2)c2cc(C)n3c2c1N(c1ncc(COCCN(C)C)cn1)CC3 [Compound I-315]	80 nM	3.9	–
Cc1ccc(-c2c([C@H](OC(C)(C)C)C(=O)O)c(C)c3c4c2cc(C)n4CCN3c2ncc(N3C[C@@H](C)O[C@@H](C)C3)cn2)cc1 [Compound I-316]	6.6 nM	17	–
Cc1c([C@H](OC(C)(C)C)C(=O)O)c(-c2cc3ccccc3s2)c2cc(C)n3c2c1N(CCN(C)C)CC3 [Compound I-319]	87 nM	3.4	–

SMILES	EC50 [1, 3]	Potency shift value [2]	EC50 [1, 4]
Cc1c([C@H](OC(C)(C)C)C(=O)O)c(C2=CCC(C)(C)CC2)c2cc(C)n3c2c1N(CCN(C)C)CC3 [Compound I-320]	16 nM	2.6	–
COc1cnc(N2c3c(C)c([C@H](OC(C)(C)C)C(=O)O)c(-c4ccc(Cl)cc4)c4cc(C)n(c34)C3CN(C(=O)c4ccccc4)CC32)nc1 (stereo partly shown) [Compound I-322]	44 nM	15	–
COc1ccc(N2CCn3c(C)cc4c(-c5ccc(C)cc5)c([C@H](OC(C)(C)C)C(=O)O)c(C)c2c43)nn1 [Compound I-328]	51 nM	4.2	–
Cc1ccc(-c2c([C@H](OC(C)(C)C)C(=O)O)c(C)c3c4c2cc(C)n4CCN3c2nc(C)ns2)cc1 [Compound I-329]	19 nM	15	–
Cc1ccc(-c2c([C@H](OC(C)(C)C)C(=O)O)c(C)c3c4c2cc(C)n4CCN3c2ncc(Oc3ncccn3)cn2)cc1 [Compound I-330]	7.7 nM	39	–
Cc1c([C@H](OC(C)(C)C)C(=O)O)c(-c2ccc(Cl)cc2)c2cc(C)n3c2c1N(C)CC3c1ccccc1 (stereo partly shown) [Compound I-331]	–	7	92 nM
Cc1c([C@H](OC(C)(C)C)C(=O)O)c(-c2ccc(Cl)cc2)c2cc(C)n3c2c1N(C)CC3c1ccccc1 (stereo partly shown) [Compound I-332]	–	25	13 nM
Cc1ccc(-c2c([C@H](OC(C)(C)C)C(=O)O)c(C)c3c4c2cc(C)n4CCN3c2ncc(CCO)cn2)cc1 [Compound I-335]	14 nM	36	–
Cc1ccc(-c2c([C@H](OC(C)(C)C)C(=O)O)c(C)c3c4c2cc(C)n4CCN3c2ncc(CCN(C)C)cn2)cc1 [Compound I-337]	28 nM	3.6	–
Cc1ccc(-c2c([C@H](OC(C)(C)C)C(=O)O)c(C)c3c4c2cc(C)n4CCN3c2ncc(Oc3ccc4ccccc4n3)cn2)cc1 [Compound I-338]	21 nM	18	–
Cc1ccc(-c2c([C@H](OC(C)(C)C)C(=O)O)c(C)c3c4c2cc(C)n4CCN3c2ncc(Oc3ccnc4ccccc34)cn2)cc1 [Compound I-340]	15 nM	18	–
Cc1ccc(-c2c([C@H](OC(C)(C)C)C(=O)O)c(C)c3c4c2cc(C)n4CCN3c2ncc(Oc3nc(C)nc4ccccc34)cn2)cc1 [Compound I-343]	21 nM	11	–
Cc1ccc(-c2c([C@H](OC(C)(C)C)C(=O)O)c(C)c3c4c2cc(C)n4CCN3c2ncc(Oc3nccc4ccccc34)cn2)cc1 [Compound I-344]	17 nM	33	–
Cc1ccc(-c2c([C@H](OC(C)(C)C)C(=O)O)c(C)c3c4c2cc(C)n4CCN3c2ncc(Oc3nc4ccccc4o3)cn2)cc1 [Compound I-345]	38 nM	41	–
Cc1ccc(-c2c([C@H](OC(C)(C)C)C(=O)O)c(C)c3c4c2cc(C)n4CCN3c2ncc(CN3CCCC3)cn2)cc1 [Compound I-347]	10 nM	7.4	–
Cc1ccc(-c2c([C@H](OC(C)(C)C)C(=O)O)c(C)c3c4c2cc(C)n4CCN3c2ncc(CN3CCOCC3)cn2)cc1 [Compound I-348]	5 nM	21	–
Cc1ccc(-c2c([C@H](OC(C)(C)C)C(=O)O)c(C)c3c4c2cc(C)n4CCN3c2ncc(CN3CCN(C)CC3)cn2)cc1 [Compound I-349]	30 nM	3.6	–
Cc1ccc(-c2c([C@H](OC(C)(C)C)C(=O)O)c(Cl)c3c4c2cc(C)n4CCN3c2ncc(OCCN(C)C)cn2)cc1 [Compound I-350]	22 nM	4.3	–
Cc1ccc(-c2c([C@H](OC(C)(C)C)C(=O)O)c(C)c3c4c2cc(C)n4CCN3c2ncc(CCN3CCN(C)CC3)cn2)cc1 [Compound I-351]	17 nM	5.5	–
Cc1ccc(-c2c([C@H](OC(C)(C)C)C(=O)O)c(Cl)c3c4c2cc(C)n4CCN3c2nc3c(s2)CCN(C)C3)cc1 [Compound I-352]	14 nM	10	–
Cc1ccc(-c2c([C@H](OC(C)(C)C)C(=O)O)c(Cl)c3c4c2cc(C)n4CCN3c2nc3c(s2)CN(C)CC3)cc1 [Compound I-353]	15 nM	10	–
Cc1ccc(-c2c([C@H](OC(C)(C)C)C(=O)O)c(Cl)c3c4c2cc(C)n4CCN3c2ccc(C)nn2)cc1 [Compound I-354]	5.3 nM	27	–

— patent US10494380B2, “Nitrogen-containing tricyclic derivatives having HIV replication inhibitory activity” (priority 2015, dated 2019)
